Data from ChEMBL document CHEMBL1201862, “PubChem BioAssay data set” (2004).
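How tested: cells in 96-well plates exposed to compound for 48 hours at five concentrations. GI50 is the concentration that inhibits growth by half.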 Active and inactive are the calls of the source. Cut-off read from the data, not from the text of the source: active = GI50 up to about 1.1 µM and inactive = higher.

Tests used:
Experiment in all cases: NCI-60 cell line screen, 48 h
HOP-92 = system: HOP-92
786-0 = system: 786-0
NCI/ADR-RES = system: NCI/ADR-RES
MCF7 = system: MCF7
HCT-116 = system: HCT-116
OVCAR-3 = system: OVCAR-3
Malme-3M = system: Malme-3M
MDA-MB-435 = system: MDA-MB-435
NCI-H522 = system: NCI-H522
MOLT-4 = system: MOLT-4
IGROV-1 = system: IGROV-1
RPMI-8226 = system: RPMI-8226
U-251 = system: U-251
PC-3 = system: PC-3
MDA-N = system: MDA-N
UACC-257 = system: UACC-257
SF-268 = system: SF-268
COLO 205 = system: COLO 205
ACHN = system: ACHN
HOP-62 = system: HOP-62

Measured: GI50

O=C1c2ccccc2C(=O)c2nn(N=P(CP(=Nn3nc4c(n3)C(=O)c3ccccc3C4=O)(c3ccccc3)c3ccccc3)(c3ccccc3)c3ccccc3)nc21
inactive: HOP-92 96.8 µM | 786-0 > 100 µM | NCI/ADR-RES > 100 µM | MCF7 > 100 µM | HCT-116 > 100 µM | OVCAR-3 > 100 µM | Malme-3M > 100 µM | MDA-MB-435 > 100 µM | NCI-H522 > 100 µM | MOLT-4 > 100 µM | IGROV-1 > 100 µM | RPMI-8226 > 100 µM | U-251 > 100 µM | PC-3 > 100 µM | MDA-N > 100 µM | UACC-257 > 100 µM | SF-268 > 100 µM | COLO 205 > 100 µM | ACHN > 100 µM | HOP-62 > 100 µM

CC(C)=CC(Cc1ccccc1)S(=O)(=O)c1nc2ccccc2s1 (stereo not given)
inactive: HOP-92 16.6 µM | 786-0 14.6 µM | NCI/ADR-RES 19.7 µM | MCF7 14.7 µM | HCT-116 14 µM | OVCAR-3 15.3 µM | Malme-3M 14.5 µM | MDA-MB-435 11 µM | NCI-H522 11.3 µM | MOLT-4 2.98 µM | IGROV-1 19.7 µM | RPMI-8226 10.5 µM | U-251 15.9 µM | PC-3 16.7 µM | MDA-N 8.13 µM | UACC-257 21 µM | SF-268 15.6 µM | COLO 205 17 µM | ACHN 18.8 µM | HOP-62 28.8 µM
